Data: PMC3994528, “GE23077 binds to the RNA polymerase ‘i’ and ‘i+1’ sites and prevents the binding of initiating nucleotides” (eLife, 2014)
≈ marks a conversion by molar mass, not a printed value.

How the values were obtained:
Human RNAP I / II / III = assay: Radiochemical assay with human RNAP I/II/III (HeLa nuclear extract); type: biochemical
Method: Radiochemical assays with human RNAP I/II/III were performed essentially as in [Sawadogo and Roeder (1985)]. Reaction mixtures contained (20 µl): 0–100 µM GE, 8 U HeLaScribe Nuclear Extract (Promega, Madison, WI), 1 µg human placental DNA (Sigma–Aldrich), 400 μM ATP, 400 μM [α^32P]UTP (0.11 Bq/fmol), 400 μM CTP, 400 μM GTP, 50 mM Tris–HCl, pH 8.0, 7 mM HEPES-NaOH, 70 mM (NH4)2SO4, 50 mM KCl, 12 mM MgCl2, 5 mM DTT, 0.1 mM EDTA, 0.08 mM phenylmethylsulfonyl fluoride, and 16% glycerol. Reaction components other than DNA and NTPs were pre-incubated 10 min at 30°C, DNA was added and reaction mixtures were incubated 15 min at 30°C, NTPs were added and reaction mixtures were incubated 60 min at 30°C. Reaction mixtures were spotted on DE81 filter discs (Whatman, Kent, UK; pre-wetted with water) and incubated 1 min at room temperature. Filters were washed with 3 × 3 ml Na2HPO4, 2 × 3 ml water, and 3 ml ethanol, using a filter manifold (Hoefer, Holliston, MA). Filters were placed in scintillation vials containing 10 ml Scintiverse BD Cocktail (Thermo Fisher, Waltham, MA), and radioactivity was quantified by scintillation counting (LS6500; Beckman–Coulter, Brea, CA).
Half-maximal inhibitory concentrations (IC50s) were calculated by non-linear regression in SigmaPlot (SPSS, Chicago, IL).

[1] = target: T1, Staphylococcus aureus RNAP (Staphylococcus aureus, UniProt P47768+Q2G0N5); assay: biochemical
T1 construct: made in house

E. coli RNAP holoenzyme [2] = target: T2, E. coli RNAP holoenzyme (Escherichia coli, UniProt P0A8T7+P0A8V2); type: biochemical; conditions: 0.5 μM GE or 2.2 μM Rif; lacUV5(ICAP) promoter
[3] = target: T3, Thermus thermophilus RNAP (Thermus thermophilus, UniProt Q8RQE8+Q8RQE9); assay: biochemical
T3 construct: made in house

[4] = target: T4, Mycobacterium tuberculosis RNAP (Mycobacterium tuberculosis, UniProt P9WGY7+P9WGY9); assay: biochemical
T4 construct: made in house

E. coli D21f2tolC = assay: Resistance and cross-resistance levels, rpoB mutants from saturation mutagenesis (plasmid-borne), broth microdilution; type: cell-based, Escherichia coli
[Lys684]β-RNAP [5] = target: T5, [Lys684]β-RNAP (Escherichia coli, UniProt P0A8T7+P0A8V2, N684K); assay: Fluorescence-detected RNAP-Rif interaction assay, GE-resistant RNAP; type: binding
Method: (§1) RNAP-Rif interaction assays were performed as in [Feklistov et al. (2008)]. The assays monitored the quenching of the fluorescence emission of fluorescein incorporated into RNAP holoenzyme at σ^70 residue 517 (serving as a fluorescence-resonance-energy-transfer donor) by the naphthyl moiety of Rif (serving as a fluorescence-resonance-energy-transfer acceptor; [Knight et al., 2005]; [Feklistov et al., 2008]). Fluorescence measurements were performed using a QuantaMaster QM1 spectrofluorometer (PTI, Edison, NJ) (excitation wavelength = 480 nm; emission wavelength = 530 nm; and excitation and emission slit widths = 5 nm).
(§2) For determination of association kinetics, 720 μl 2 nM [F^517]σ^70-RNAP holoenzyme and 0-2 μM GE in 40 mM Tris–HCl, pH 8.0, 100 mM NaCl, 10 mM MgCl2, 1 mM DTT, 0.02% Tween-20, and 5% glycerol was incubated 15 min at 24°C and then mixed with 30 μl 0.01–0.5 μM Rif in the same buffer at 24°C in a cuvette chamber with a mixing dead time ∼0.5 s, and fluorescence emission intensities were monitored for 30 min at 24°C. […]
(§3) The equilibrium dissociation constant for RNAP-GE interaction, Ki, was calculated from the association-kinetics data, by fitting the GE-concentration-dependence of I∞ to: I∞=(I∞,max[GE])/(Ki+[GE])

[Asp565]β-RNAP = [Asp565]β-RNAP (Escherichia coli, UniProt P0A8T7+P0A8V2, E565D); assay: as above; type: binding
Method: as §1, §2, §3

E. coli RNAP holoenzyme [6] = target: T2, E. coli RNAP holoenzyme; type: biochemical; conditions: 0.5 μM GE; T7 A1 promoter
[7] = target: T6, E. coli RNAP holoenzyme ([F^517]σ^70-RNAP holoenzyme) (Escherichia coli, UniProt P0A8T7+P0A8V2); assay: Fluorescence-detected RNAP-Rif interaction assay; type: binding
T6 construct: made in house
Method: as §1
For determination of association kinetics, 720 μl 2 nM [F^517]σ^70-RNAP holoenzyme and 0-2 μM GE in 40 mM Tris–HCl, pH 8.0, 100 mM NaCl, 10 mM MgCl2, 1 mM DTT, 0.02% Tween-20, and 5% glycerol was incubated 15 min at 24°C and then mixed with 30 μl 0.01–0.5 μM Rif in the same buffer at 24°C in a cuvette chamber with a mixing dead time ∼0.5 s, and fluorescence emission intensities were monitored for 30 min at 24°C. On-rates for RNAP-Rif interaction, kon, were calculated by fitting data to: I=(I0−I∞)exp(−kobst)+I∞ where kobs is the observed association rate constant at a specified Rif concentration, I is the fluorescence emission intensity at time t, Io is the fluorescence emission intensity at t = 0, and I∞ is the fluorescence emission intensity at t = ∞; followed by fitting the Rif-concentration-dependence of kobs to: kobs=kon[Rif]+koff where koff is ≥0 but is otherwise unconstrained.
Off-rates for RNAP-Rif interaction, koff, were calculated as: I=I0+(I∞−I0)[1−exp(−kofft)] where I is the fluorescence emission intensity at time t, Io is the fluorescence intensity at t = 0, and I∞ is the fluorescence intensity at t = ∞.
Equilibrium dissociation constants for RNAP-Rif interaction, Kd, were calculated as koff/kon.
as §3

E. coli RNAP holoenzyme [8] = target: T2, E. coli RNAP holoenzyme; type: biochemical; conditions: halted TEC containing 29 nt RNA product
Escherichia coli RNAP = Escherichia coli RNAP (Escherichia coli, UniProt P0A8T7+P0A8V2); assay: biochemical; type: biochemical; conditions: wild-type E. coli RNAP
E. coli RNAP holoenzyme [9] = target: T2, E. coli RNAP holoenzyme; type: biochemical; conditions: 0.5 μM GE or 2.2 μM Rif; ApA primer and UTP
E. coli RNAP core enzyme = target: T7, E. coli RNAP core enzyme (Escherichia coli, UniProt P0A8T7+P0A8V2); type: biochemical; conditions: 0.5 μM GE
T7 construct: purchased Epicentre, Madison, WI

[Lys684]β-RNAP [10] = target: T5, [Lys684]β-RNAP; assay: biochemical; conditions: GE-resistant RNAP [Lys684]β-RNAP
S. pyogenes = assay: Resistance levels, chromosomal GE^R mutants, broth microdilution; type: cell-based, Streptococcus pyogenes
[11] = tested on: Escherichia coli D21f2tolC; assay: Antibacterial activity, MIC by broth microdilution; type: cell-based; conditions: starting cell density 3 × 10^4 cfu/ml
From the text: (§4) Minimum inhibitory concentrations (MICs) were quantified using broth microdilution assays ([Clinical and Laboratory Standards Institute, 2009]), using a starting cell density of 3 × 10^4 cfu/ml, LB broth ([Sambrook and Russell, 2001]), and an air atmosphere for E. coli D21f2tolC (tolC:Tn10 rfa lac28 proA23 trp30 his51 rpsL173 ampC tsx81; strain with cell-envelope defects resulting in increased susceptibility to hydrophobic agents, including GE; Fralick and Burns-Keliher, 1994; unpublished data), and using a starting cell density of 3 × 10^4 cfu/ml, Bacto Todd Hewitt broth (TH broth; BD Biosciences, San Jose, CA), and a 7% CO2/6% O2/4% H2/83% N2 atmosphere for S. pyogenes and M. catarrhalis.

[12] = tested on: Moraxella catarrhalis ATCC 25238; assay: Antibacterial activity, MIC by broth microdilution; type: cell-based; conditions: ATCC25238
From the text: as §4

[13] = tested on: Streptococcus pyogenes ATCC 12344; assay: Antibacterial activity, MIC by broth microdilution; type: cell-based; conditions: ATCC12344
From the text: as §4

T3 sequence (Q8RQE8 whole entry): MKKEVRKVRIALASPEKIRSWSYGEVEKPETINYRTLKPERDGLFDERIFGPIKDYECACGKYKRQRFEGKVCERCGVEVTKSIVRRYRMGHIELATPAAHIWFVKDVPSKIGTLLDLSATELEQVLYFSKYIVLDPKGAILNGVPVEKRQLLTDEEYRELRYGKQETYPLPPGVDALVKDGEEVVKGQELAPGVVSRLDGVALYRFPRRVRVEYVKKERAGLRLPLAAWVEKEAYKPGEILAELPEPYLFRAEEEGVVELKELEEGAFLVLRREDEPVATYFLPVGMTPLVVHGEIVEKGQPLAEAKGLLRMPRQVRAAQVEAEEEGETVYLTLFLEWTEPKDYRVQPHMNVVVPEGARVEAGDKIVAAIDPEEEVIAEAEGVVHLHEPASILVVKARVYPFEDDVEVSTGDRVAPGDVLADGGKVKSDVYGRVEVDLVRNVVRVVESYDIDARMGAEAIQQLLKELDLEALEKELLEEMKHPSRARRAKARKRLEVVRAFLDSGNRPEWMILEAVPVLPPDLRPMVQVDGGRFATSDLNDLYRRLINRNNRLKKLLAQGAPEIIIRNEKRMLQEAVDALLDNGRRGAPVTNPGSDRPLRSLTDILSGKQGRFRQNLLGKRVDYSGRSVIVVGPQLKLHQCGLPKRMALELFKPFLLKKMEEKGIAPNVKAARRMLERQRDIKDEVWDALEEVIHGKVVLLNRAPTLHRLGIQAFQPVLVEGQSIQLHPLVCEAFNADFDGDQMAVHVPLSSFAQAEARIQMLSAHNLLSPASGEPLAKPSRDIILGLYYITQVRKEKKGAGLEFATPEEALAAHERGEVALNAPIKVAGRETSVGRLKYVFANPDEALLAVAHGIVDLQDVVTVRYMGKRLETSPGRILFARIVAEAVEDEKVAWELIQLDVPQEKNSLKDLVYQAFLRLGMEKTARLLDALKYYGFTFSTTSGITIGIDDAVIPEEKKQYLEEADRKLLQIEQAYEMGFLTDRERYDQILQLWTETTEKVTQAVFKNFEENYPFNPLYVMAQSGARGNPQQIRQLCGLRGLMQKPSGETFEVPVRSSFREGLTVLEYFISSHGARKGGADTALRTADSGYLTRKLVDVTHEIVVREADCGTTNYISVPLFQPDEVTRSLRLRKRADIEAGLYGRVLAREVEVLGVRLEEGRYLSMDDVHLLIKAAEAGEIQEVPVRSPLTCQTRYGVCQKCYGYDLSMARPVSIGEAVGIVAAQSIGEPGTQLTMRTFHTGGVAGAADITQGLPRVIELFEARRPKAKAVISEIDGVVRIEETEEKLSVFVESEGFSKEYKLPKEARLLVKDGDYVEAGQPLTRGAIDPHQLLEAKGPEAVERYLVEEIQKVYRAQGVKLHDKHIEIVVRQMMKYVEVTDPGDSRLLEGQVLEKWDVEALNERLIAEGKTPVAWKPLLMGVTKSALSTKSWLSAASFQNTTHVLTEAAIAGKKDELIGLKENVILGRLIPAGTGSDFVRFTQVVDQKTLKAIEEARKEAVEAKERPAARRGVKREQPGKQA
T3 sequence (Q8RQE9 whole entry): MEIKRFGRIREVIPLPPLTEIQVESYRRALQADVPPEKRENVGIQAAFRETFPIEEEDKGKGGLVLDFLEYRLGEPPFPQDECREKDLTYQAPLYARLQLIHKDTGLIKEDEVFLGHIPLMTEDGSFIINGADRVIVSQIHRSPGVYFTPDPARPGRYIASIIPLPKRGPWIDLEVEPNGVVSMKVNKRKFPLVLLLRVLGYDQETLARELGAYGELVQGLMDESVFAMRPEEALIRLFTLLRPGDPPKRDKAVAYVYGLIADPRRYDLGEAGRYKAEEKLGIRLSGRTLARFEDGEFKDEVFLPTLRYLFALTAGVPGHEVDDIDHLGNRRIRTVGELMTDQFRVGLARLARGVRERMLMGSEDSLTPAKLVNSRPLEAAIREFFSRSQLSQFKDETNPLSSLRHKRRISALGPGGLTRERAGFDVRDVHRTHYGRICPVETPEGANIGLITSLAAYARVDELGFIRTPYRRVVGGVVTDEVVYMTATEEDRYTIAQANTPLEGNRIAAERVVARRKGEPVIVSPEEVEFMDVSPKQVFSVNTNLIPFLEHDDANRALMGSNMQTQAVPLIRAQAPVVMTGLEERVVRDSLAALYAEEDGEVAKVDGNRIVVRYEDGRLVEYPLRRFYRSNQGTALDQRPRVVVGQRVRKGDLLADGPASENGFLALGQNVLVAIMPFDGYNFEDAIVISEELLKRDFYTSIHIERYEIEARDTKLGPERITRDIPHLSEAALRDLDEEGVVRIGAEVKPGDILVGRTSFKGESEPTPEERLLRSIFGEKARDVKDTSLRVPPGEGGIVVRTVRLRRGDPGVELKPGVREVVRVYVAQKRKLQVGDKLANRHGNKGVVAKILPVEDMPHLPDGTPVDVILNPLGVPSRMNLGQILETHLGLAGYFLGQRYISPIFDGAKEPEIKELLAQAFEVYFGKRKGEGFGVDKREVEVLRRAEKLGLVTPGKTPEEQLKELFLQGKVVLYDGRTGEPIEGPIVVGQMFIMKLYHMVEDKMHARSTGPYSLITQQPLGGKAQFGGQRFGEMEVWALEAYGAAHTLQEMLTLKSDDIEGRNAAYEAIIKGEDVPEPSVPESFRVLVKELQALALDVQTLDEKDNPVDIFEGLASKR

## CC=C(C)C(=O)NCC1NC(=O)C(C(=O)O)NC(=O)C(O)CNC(=O)C(C(C)O)NC(=O)C(C(O)C(O)C(N)=O)NC(=O)C(C(C)C)NC(=O)C(CO)NC1=O (stereo not shown) [GE, GE23077]
other
  MICwild-type: 500 µg/mL
Human RNAP I / II / III
  IC50: > 50 µM
[1]
  IC50: 20 nM
E. coli RNAP holoenzyme [2]
  inhibition of formation of RNAP-promoter open complex (RPo): does not inhibit
[3]
  IC50: 20 µM
[4]
  IC50: 100 nM
E. coli D21f2tolC; Rif^R mutants
  cross-resistance of Rif^R mutants to GE: do not exhibit cross-resistance
E. coli D21f2tolC; all six GE^R substitutions
  resistance, fold higher MIC, all six GE^R substitutions: ≥ fourfold
[Lys684]β-RNAP [5]
  Ki: > 2000 nM
[Asp565]β-RNAP
  Ki: > 2000 nM
E. coli RNAP holoenzyme [6]
  inhibition of first nucleotide addition, de novo transcription initiation: inhibits the first nucleotide-addition step
[7]; saturating GE
  fold decrease of kon for Rif by GE: ~20 fold
  fold increase of Kd for Rif by GE: ~80 fold
  fold increase of koff for Rif by GE: fourfold
[7]; wild-type RNAP, 24°C, read-out: Ki,GE, equilibrium dissociation constant for inhibition of RNAP-Rif interaction by GE
  Ki: 6 nM
E. coli RNAP holoenzyme [8]
  inhibition of nucleotide addition in transcription elongation, halted elongation complex: does not inhibit transcription elongation
Escherichia coli RNAP
  IC50: 20 nM
E. coli RNAP holoenzyme [9]
  inhibition of first nucleotide addition, primer-dependent transcription initiation: inhibits the first nucleotide-addition step
E. coli RNAP core enzyme
  inhibition of single nucleotide addition, reconstituted elongation complex: does not inhibit single nucleotide addition
[Lys684]β-RNAP [10]
  IC50: > 400 µM
S. pyogenes; S. pyogenes rpoB 565 [525] Glu→Gly
  resistance level (MIC/MICwild-type): 32
S. pyogenes; S. pyogenes rpoB 565 [525] Glu→Val
  resistance level (MIC/MICwild-type): 32
S. pyogenes; S. pyogenes rpoB 681 [643] Met→Lys
  resistance level (MIC/MICwild-type): 16
S. pyogenes; S. pyogenes rpoB 684 [646] Asn→Ile
  resistance level (MIC/MICwild-type): >32
S. pyogenes; wild-type S. pyogenes
  MICwild-type: 250 µg/mL
[11]
  MIC: 250 µg/mL (≈ 311 µM)
[12]
  MIC: 25 µg/mL (≈ 31.1 µM)
[13]
  MIC: 250 µg/mL (≈ 311 µM)
